Test system: μ receptor
Experiment: Hemi-equilibrium simulation of buprenorphine antagonism of DAMGO
Conditions: chosen to match the experimental DAMGO concentration-response curve

C[C@@H](NC(=O)[C@@H](N)Cc1ccc(O)cc1)C(=O)NCC(=O)N(C)[C@@H](Cc1ccccc1)C(=O)NCCO [DAMGO, [D-Ala^2, N-MePhe^4, Gly-ol]-enkephalin]
τ (efficacy of the agonist in the system): 2.3

— publication PMC12984539 (European journal of pharmacology, 2024)
